Test results: patent US20130245126A1, “GERANYLGERANYLACETONE FORMULATIONS AND RETINAL DELIVERY THEREOF” (COYOTE PHARMACEUTICALS, INC., priority 2012, published 2013)
Several values for one entry are separate records, joined by “and”; a condition that tells them apart may be missing. Equal values may be shown once. Read-outs that look alike come from different tables or passages of the source.

What was measured:
[1] = Ocular, retinal delivery of GGA by eye drop compared to systemic (PO) delivery, AUC (Example 21); type: in vivo; settings: for Kp(eye ball) / Kp(retina): 180 mg/kg PO
[2] = Intraocular GGA levels, topical ocular 5% GGA versus 200 mg/kg oral; type: in vivo; settings: topical ocular composition of 5% GGA vs 200 mg/kg GGA orally
Text: The level achieved thereby into the ocular tissue was many-folds more, for example, about 5 times more than that achieved by systemic delivery by oral administration. […] Such is even more unexpected in view of the eye being a immunprotected organ which is predisposed to impede compounds from getting into the ocular tissue and to remove any compound entered into it.

[3] = Rat ocular pharmacokinetics: GGA concentration in eye balls after topical eye drops (LC-MS/MS); type: in vivo; settings: for Mean of Duplicate / R/L: per rat; for Concentration: single determination; for R/L: ratio of right to left eye concentration
Description: (§1) In Cohort 2 the efficacy of Formulation 102 was tested against Formulation 101 and vehicle controls at different time points.
(§2) • Route: topical eye drop formulation • Frequency: 4 or 8 doses, every 1 hour • Dose Administration : under isofluorane anesthesia (2.5%) • Dose Volume: 5 μL in each eye
(§3) • Species: Rat • Strain: Sprague-Dawley • Supplier: Harlan • Sex: Male • Weight at Initiation: 200 to 220 g • Number of Animals: 12 for Cohort 1, 26 for Cohort 2
Eye drops were applied every hour either for 4 hours or for 8 hours. Animals were euthanized 4 hours and 8 hours after the first dosing, and the eye balls collected on dry ice. Eyes were homogenized with a polytron homogenizer in ethanol. GGA was quantified in the eye ball lysates by liquid chromatography-tandem mass spectroscopy.

[4] = system: HSP70; assay: HSP70 analysis by ELISA in rat eyes after eye drops (Example 17, Cohort 2); type: in vivo; settings: for Ratio: compound treated/vehicle treated, Average (AVE): HSP70, average of 4 rats; for Left (compound treated) AVE: HSP70, average of the left-eye values of Table 3 (pg/ml there); for Ratio treated eye/vehicle treated eye: HSP70, individual rat, left (compound) vs right (vehicle) eye; for HSP70: individual rat, compound-treated left eye, 5% eye drop 0.25 mg/eye per dose hourly, harvest time not stated
Description: as §1
Cohort 2: HSP70 analysis for ELISA only
as §2, §3

[5] = system: HSP70; assay: HSP70 induction in eye balls by eye drops, ELISA normalized by total protein (Example 18); type: in vivo, Rat
Description: Eye drops were applied every hour either for 4 hours or for 8 hours. Animals were euthanized 4 hours, 8 hours or 24 hours after the first dosing, and the eye balls collected on ice. Eyes were homogenized with a polytron homogenizer in a standard lysis buffer containing proteinase inhibitors. HSP70 was quantified by a commercially available ELISA kit and normalized by total protein concentration in the sample.

[6] = contralateral eye, 8 doses, group average of Table 7 means (ng/g there), in ng/g
[7] = left (treated) eye, 4 doses, harvest 4 h
[8] = left (treated) eye, 8 doses, harvest 8 h
[9] = left (treated) eye, 4 hourly doses 0.25 mg/eye, harvest 4 h
[10] = left (treated) eye, 8 hourly doses 0.25 mg/eye, harvest 8 h
[11] = right (contralateral) eye, 4 doses, harvest 4 h
[12] = right (contralateral) eye, 8 doses, harvest 8 h
[13] = treated eye, 8 doses, group average of Table 7 means (ng/g there), in ng/g

Row | SMILES | contra/ipsi AVE ([3]; 4 doses, 4 h) | contra/ipsi AVE ([3]; 8 doses, 8 h) | 8 h contra AVE [3, 6] | Mean of Duplicate [3, 7] | Mean of Duplicate [3, 8] | Concentration [3, 9] | Concentration [3, 10] | R/L ([3]; 4 doses, 4 h) | R/L ([3]; 8 doses, 8 h) | Mean of Duplicate [3, 11] | Mean of Duplicate [3, 12] | 8 h ispi AVE [3, 13] | Ratio: compound treated/vehicle treated, Average (AVE) [4] | Left (compound treated) AVE [4] | Ratio treated eye/vehicle treated eye [4] | HSP70 [4] | Kp(eye ball) [1] | Kp(retina) [1] | other results
1 | CC(=O)CCC=C(C)CC/C=C(\C)CC/C=C(\C)CCC=C(C)C (mixture of isomers) [GGA, Geranylgeranyl acetone] | – | – | – | – | – | – | – | – | – | – | – | – | – | – | – | – | – | – | delivery into the retina and the eyeball ([1]; eye drop): effective delivery; levels of geranylgeranyl acetone achieved intraocularly, topical vs oral [2]: about 5 fold
2 | CC(=O)CC/C=C(\C)CC/C=C(\C)CC/C=C(\C)CCC=C(C)C [CNS-102, (5E, 9E, 13E) geranylgeranyl acetone] | 0.3052 | 0.2617 | 2105 | 30309 ng/g and 21828 ng/g and 17344 ng/g | 10746 ng/g and 8395 ng/g and 7168.5 ng/g | 32854 ng/g and 27764 ng/g and 21506 ng/g and 22150 ng/g and 17494 ng/g and 17194 ng/g | 12094 ng/g and 9398 ng/g and 8505 ng/g and 8285 ng/g and 7547 ng/g and 6790 ng/g | 0.3848 and 0.2037 and 0.327 | 0.1144 and 0.2267 and 0.444 | 4447 ng/g and 5672 ng/g and 11663.5 ng/g | 1229 ng/g and 1903.5 ng/g and 3182.5 ng/g | 8769.833 | 1.089 | 681.9337 | 0.5953 and 1.239 and 1.26 and 1.263 | 685.1953 pg/mL and 757.1621 pg/mL and 583.588 pg/mL and 701.7893 pg/mL | 0.19 | 0.79 | concentration at 4 h ([3]; male, Sprague-Dawley, rat, eye ball (contralateral eye), topical, 0.25 mg/eye, contralateral eye, 4 doses, group average of Table 7 means (ng/g there), read-out: 4 h contra AVE): 7260 ng/g; concentration at 4 h ([3]; male, Sprague-Dawley, rat, eye ball (treated, ipsilateral eye), topical, 0.25 mg/eye, treated eye, 4 doses, group average of Table 7 means (ng/g there), read-out: 4 h ispi AVE): 23200 ng/g
3 | CC(=O)CCC=C(C)CC/C=C(\C)CC/C=C(\C)CCC=C(C)C (mixture of isomers) [CNS-101, cis-trans geranylgeranyl acetone] | 0.349 | 0.1718 | 2986.667 | 14722 ng/g and 15163 ng/g and 19992 ng/g | 18546 ng/g and 13199 ng/g and 18795.5 ng/g | 14635 ng/g and 14809 ng/g and 15206 ng/g and 15120 ng/g and 19608 ng/g and 20376 ng/g | 18947 ng/g and 18145 ng/g and 12879 ng/g and 13519 ng/g and 18953 ng/g and 18638 ng/g | 0.4357 and 0.2213 and 0.3901 | 0.1996 and 0.1209 and 0.1949 | 6414.5 ng/g and 3355 ng/g and 7799.5 ng/g | 3701 ng/g and 1596 ng/g and 3663 ng/g | 16846.83 | 1.665 | 952.4506 | 1.003 and 2.135 and 1.544 and 1.976 | 589.4561 pg/mL and 1023.901 pg/mL and 1211.234 pg/mL and 985.2114 pg/mL | 0.71 | 2.21 | 4 h contra AVE ([3]; contralateral eye, 4 doses, group average of Table 7 means (ng/g there), in ng/g): 5856.333; concentration at 4 h ([3]; male, Sprague-Dawley, rat, eye balls, topical, CNS-101 concentrations in eye balls, mean ± SD, 4 × 5 ml 5% CNS-101, measured after 4 hrs): 16600 ng/g; concentration at 8 h ([3]; male, Sprague-Dawley, rat, eye balls, topical, CNS-101 concentrations in eye balls, mean ± SD, 8 × 5 ml 5% CNS-101, measured after 8 hrs): 16800 ng/g; 4 h ispi AVE ([3]; treated eye, 4 doses, group average of Table 7 means (ng/g there), in ng/g): 16625.67; HSP70 expression in eye balls, mean ± SD ([5]; topical ocular 5% CNS-101, 4 hours): 50.7 ± 8.01 pg/mg protein; HSP70 expression in eye balls, mean ± SD ([5]; topical ocular 5% CNS-101, 8 hours): 55.9 ± 11.2 pg/mg protein; HSP70 expression in eye balls, mean ± SD ([5]; topical ocular 5% CNS-101, 24 hours): 50.5 ± 10.8 pg/mg protein
